Reference: article PMC9502528, “Stability Study of Alpinia galanga Constituents and Investigation of Their Membrane Permeability by ChemGPS-NP and the Parallel Artificial Membrane Permeability Assay” (Pharmaceutics, 2022)
Like-named read-outs stand apart in the source and are kept apart here.

Key:
[1] = Stability analyses in PBS (pH 7.4) at 37 °C for 4 h, UPLC-DAD; assay type: physicochemical; settings: for percentage difference between the initial and final concentrations: PBS pH 7.4, 37 °C, 4 h, 100 μM; for stability in aqueous media: aqueous media (PBS)
Procedure: The isolation of 8 compounds (compounds 1, 2, […], 5, 6, 7, 9, and 10) was carried out using flash chromatography and semi-preparative HPLC; the corresponding data is presented in the Supplementary Materials. For stability analyses, the stock solutions were prepared from the ethyl acetate extract (200 mg/mL) and from compounds 1, 2, 4, 5, 6, 7, 9, and 10 dissolved in dimethyl sulfoxide (DMSO) at the concentration of 10.0 mM. These were diluted 100-fold with PBS (Phosphate Buffer Saline; pH = 7.4). The samples were filtered through Phenex-RC 15 mm, 0.2 μm syringe filters (Gen-Lab Ltd., Budapest, Hungary). The solutions were incubated at 37 °C for 4 h; the decomposition was determined by UPLC-DAD. All experiments were performed in triplicates, on three consecutive days ([…]).
The eight isolated compounds (p-OH-benzaldehyde (1), trans-p-coumaryl-alcohol (2), p-coumaryl-aldehyde (4), galanganol A (5), galanganol B (6), trans-p-acetoxycinnamyl alcohol (7), 1′S-1′-acetoxychavicol acetate (9), and 1′S-1′-acetoxyeugenol acetate (10)) were identified by UHPLC-high-resolution Orbitrap® mass spectrometry (HR-MS) and by NMR spectroscopy; the corresponding data is presented in the Supplementary Materials, while Figure 3 depicts the structures of the isolated compounds. In order to answer the questions raised about the possible conversion and decomposition of the A. galanga constituents during the PAMPA-BBB experiment, investigation of the chemical stability of the isolated compounds was carried out in PBS medium (pH 7.4) at 37 °C for 4 h. For the analysis of the samples acquired in the stability experiments, the aforementioned UHPLC-DAD method that had previously been validated for linearity, precision, and accuracy was utilized (Tables S1 and S2).

[2] = PAMPA-BBB (parallel artificial membrane permeability assay, porcine polar brain lipid extract); assay type: in vitro ADME
Procedure: The test solutions were prepared with DMSO at the concentration of 10.0 mM. These were diluted with PBS buffer pH = 7.4 (PAMPA-BBB) or pH = 6.8 (PAMPA-GI) to obtain the donor solutions (297.0 μL buffer + 3.0 μL DMSO solution) and filtered through Phenex-RC 15 mm, 0.2 μm syringe filters (Gen-Lab Ltd., Budapest, Hungary). A parallel artificial membrane permeability assay (PAMPA) system was used to determine the effective permeability (Pe) for the compounds of interest. Each well of the top plate (96-well polycarbonate-based filter donor plates (Multiscreen™-IP, MAIPN4510, pore size 0.45 μm; Millipore)) was coated with 5 μL of porcine polar brain lipid extract (PBLE) solution (8.0 mg PBLE + 4.0 mg cholesterol dissolved in 300.0 μL n-dodecane) for PAMPA-BBB; or with 5 μL of mixture of 8.0 mg phosphatidylcholine + 4.0 mg cholesterol dissolved in 300.0 μL n-dodecane for PAMPA-GI. Then, 150.0 μL of the filtrate was placed on the membrane. The bottom plate (96-well PTFE acceptor plates (Multiscreen Acceptor Plate, MSSACCEPTOR; Millipore)), was filled with 300.0 μL buffer solution (0.01 M PBS buffer, pH = 7.4). The donor and acceptor plates were fit, and then the sandwich system was incubated at 37 °C for 4 h in a Stat-Fax 2200 (Awareness Technology, Palm City, FL, USA). After the incubation, the PAMPA plates were separated and the compound concentrations in the donor (CD(t)) and acceptor (CA(t)) solutions, as well as in the donor solution at zero time point (CD(0)), were determined by UPLC-DAD. […] At iso-pH conditions (PAMPA-BBB), the effective permeability and the membrane retention of drugs were calculated by the following equation [21]:(1) Pe =−2.303/A(t−τSS)·(VA·VD/VA+VD)·lg[1−(VA+VD/(1−MR)·VD)×(CA(t)/CD(0))], where Pe is the effective permeability coefficient (cm/s), A is the filter area (0.24 cm^2), VD and VA are the volumes in the donor (0.15 cm^3) and acceptor phases (0.30 cm^3), t is the incubation time (s), τSS is the time (s) to reach steady-state (240 s), CD(t) is the concentration (mol/cm^3) of the compound in the donor phase at time t, CD(0) is the concentration (mol/cm^3) of the compound in the donor phase at time 0, and MR is the estimated membrane retention factor (the estimated mole fraction of solute lost to the membrane):(2) MR=1−CD(t)/CD(0)−VA/VDCA(t)/CD(0)
All experiments were performed in three triplicates on three consecutive days (n = 9).

[3] = system: nitric oxide (NO) production in mouse peritoneal macrophages; parameters: method as in PMID 15930771; settings: cited from earlier work
[4] = parameters: method as in PMID 10564034; settings: 5% ethanol-containing aqueous solution at 60 °C; cited from earlier work
[5] = PAMPA-GI of the A. galanga ethyl acetate extract; assay type: in vitro ADME; settings: donor PBS pH 6.8, 37 °C, 4 h, UHPLC-DAD
Procedure: The test solutions were prepared with DMSO at the concentration of 10.0 mM. These were diluted with PBS buffer pH = 7.4 (PAMPA-BBB) or pH = 6.8 (PAMPA-GI) to obtain the donor solutions (297.0 μL buffer + 3.0 μL DMSO solution) and filtered through Phenex-RC 15 mm, 0.2 μm syringe filters (Gen-Lab Ltd., Budapest, Hungary). A parallel artificial membrane permeability assay (PAMPA) system was used to determine the effective permeability (Pe) for the compounds of interest. Each well of the top plate (96-well polycarbonate-based filter donor plates (Multiscreen™-IP, MAIPN4510, pore size 0.45 μm; Millipore)) was coated with 5 μL of porcine polar brain lipid extract (PBLE) solution (8.0 mg PBLE + 4.0 mg cholesterol dissolved in 300.0 μL n-dodecane) for PAMPA-BBB; or with 5 μL of mixture of 8.0 mg phosphatidylcholine + 4.0 mg cholesterol dissolved in 300.0 μL n-dodecane for PAMPA-GI. Then, 150.0 μL of the filtrate was placed on the membrane. The bottom plate (96-well PTFE acceptor plates (Multiscreen Acceptor Plate, MSSACCEPTOR; Millipore)), was filled with 300.0 μL buffer solution (0.01 M PBS buffer, pH = 7.4). […] After the incubation, the PAMPA plates were separated and the compound concentrations in the donor (CD(t)) and acceptor (CA(t)) solutions, as well as in the donor solution at zero time point (CD(0)), were determined by UPLC-DAD. […]

[6] = pig, PAMPA, pH 7.4, Table S4 sheet Galangal compounds, PAMPA-BBB, read-out: logPe (converted)
[7] = PAMPA-BBB, pH 7.4, 37 °C, 4 h, Pe in cm/s, n = 9

| Structure (SMILES) | percentage difference between the initial and final concentrations [1] [%] | stability in aqueous media [1] | Papp at 4 h, 100 µM [2, 6] [×10⁻⁶ cm/s] | nitric oxide (NO) production inhibitory activity [3] | PAMPA-BBB (blood–brain barrier permeability) ([2]; cutoff log Pe −6.0) | other results |
| --- | --- | --- | --- | --- | --- | --- |
| C=C[C@H](OC(C)=O)c1ccc(OC(C)=O)cc1 [Compound 9, 1′S-1′-acetoxychavicol acetate] | 57.78 | unstable | 39.8 | showed nitric oxide (NO) production inhibitory activities |  | stability in aqueous ethanol [4]: instability |
| OC[C@H](C/C=C/c1ccc(O)cc1)[C@H](O)c1ccc(O)cc1 [Compound 6, galanganol B] |  |  | 0.776 | showed nitric oxide (NO) production inhibitory activities | − | detection in the acceptor solution (PAMPA-GI) [5]: except for compounds 5 and 6; Papp at 4 h, 100 µM ([2]; pig, PAMPA, pH 7.4, PAMPA-BBB, pH 7.4, 37 °C, 4 h, Pe in cm/s, n = 9, read-out: log Pe (converted)): 0.724 ×10⁻⁶ cm/s |
| OC/C=C/c1ccc(O)cc1 [Compound 2, trans-p-coumaryl-alcohol] |  |  | 1.38 | showed nitric oxide (NO) production inhibitory activities | + | log Pe [2, 7]: −5.86 ± 0.23 |
| CC(=O)Oc1ccc(/C=C\CO)cc1 [Compound 8a, cis-p-acetoxycinnamyl alcohol] |  |  | 31.6 |  |  |  |
| C=C[C@H](OC(C)=O)c1ccc(OC(C)=O)c(OC)c1 [Compound 10, 1′S-1′-acetoxyeugenol acetate] | 14.32 | unstable | 50.1 | showed nitric oxide (NO) production inhibitory activities |  |  |
| O=Cc1ccc(O)cc1 [Compound 1, p-OH-benzaldehyde] |  |  | 2.75 |  | + | log Pe [2, 7]: −5.56 ± 0.07 |
| OC[C@@H](C/C=C/c1ccc(O)cc1)[C@H](O)c1ccc(O)cc1 [Compound 5, galanganol A] |  |  | 0.776 |  | − | detection in the acceptor solution (PAMPA-GI) [5]: except for compounds 5 and 6 |
| CC(=O)Oc1ccc(/C=C/CO)cc1 [Compound 7, trans-p-acetoxycinnamyl alcohol] | 8.04 | unstable | 31.6 |  |  |  |
| O=C/C=C/c1ccc(O)cc1 [Compound 4, p-coumaryl-aldehyde] |  |  |  | showed nitric oxide (NO) production inhibitory activities |  | PAMPA-BBB (blood–brain barrier permeability) ([2]; PAMPA): +; log Pe ([2]; pig, PAMPA, 4 h, 100 µM, pH 7.4): −5.25 ± 0.27; Papp at 4 h, 100 µM ([2]; pig, PAMPA, pH 7.4, logPe): 5.62 ×10⁻⁶ cm/s |
| OC/C=C\c1ccc(O)cc1 [Compound 3a, cis-p-coumaryl-alcohol] |  |  | 1.38 |  |  |  |
